The source of these data is ChEMBL document CHEMBL1201862, “PubChem BioAssay data set” (2004).

Activity calls are given as the source filed them.

One assay concerns the target Genome polyprotein (dengue virus type 2, UniProt P29990). Put plainly: Dengue-2 NS5 methyltransferase inhibitors, primary screen, biochemical, confirmation dose response (AID 588689). Type of assay: functional.
Assay [1] addresses DNA dC->dU-editing enzyme APOBEC-3G (Homo sapiens, UniProt Q9HC16). The format is functional.
Assay [2] has as its target DNA dC->dU-editing enzyme APOBEC-3A (Homo sapiens, UniProt P31941). Put plainly: Dose Response confirmation of small molecule APOBEC3A DNA Deaminase Inhibitors via a fluorescence-based single-stranded DNA deaminase assay. [Related pubchem assays (depositor defined):AID493011, AID493024]. The format is functional.
The target of assay [3] is Luciferin 4-monooxygenase (Photinus pyralis, UniProt P08659). Put plainly: firefly luciferase enzyme inhibitors, dose response, biochemical, luminescence (AID 1891).
The nature of assay [4]: Luminescence Cell-Based Dose Confirmation HTS to Identify Inhibitors of Platelet Dense Granule Release. [Related pubchem assays: 1663 (Primary HTS), 1678 (Summary of Project)]. The format is functional.
Another assay deals with HEK293. Put plainly: inhibitors of LMP1-driven NF-kB reporter, dose response, cell-based, HEK293, luciferase, cherry-pick (AID 588343). The format is functional. The settings on record: Homo sapiens.
Assay [5] deals with T1, Short transient receptor potential channel 4 (Mus musculus, UniProt Q9QUQ5).
T1 sequence (Q9QUQ5 whole entry): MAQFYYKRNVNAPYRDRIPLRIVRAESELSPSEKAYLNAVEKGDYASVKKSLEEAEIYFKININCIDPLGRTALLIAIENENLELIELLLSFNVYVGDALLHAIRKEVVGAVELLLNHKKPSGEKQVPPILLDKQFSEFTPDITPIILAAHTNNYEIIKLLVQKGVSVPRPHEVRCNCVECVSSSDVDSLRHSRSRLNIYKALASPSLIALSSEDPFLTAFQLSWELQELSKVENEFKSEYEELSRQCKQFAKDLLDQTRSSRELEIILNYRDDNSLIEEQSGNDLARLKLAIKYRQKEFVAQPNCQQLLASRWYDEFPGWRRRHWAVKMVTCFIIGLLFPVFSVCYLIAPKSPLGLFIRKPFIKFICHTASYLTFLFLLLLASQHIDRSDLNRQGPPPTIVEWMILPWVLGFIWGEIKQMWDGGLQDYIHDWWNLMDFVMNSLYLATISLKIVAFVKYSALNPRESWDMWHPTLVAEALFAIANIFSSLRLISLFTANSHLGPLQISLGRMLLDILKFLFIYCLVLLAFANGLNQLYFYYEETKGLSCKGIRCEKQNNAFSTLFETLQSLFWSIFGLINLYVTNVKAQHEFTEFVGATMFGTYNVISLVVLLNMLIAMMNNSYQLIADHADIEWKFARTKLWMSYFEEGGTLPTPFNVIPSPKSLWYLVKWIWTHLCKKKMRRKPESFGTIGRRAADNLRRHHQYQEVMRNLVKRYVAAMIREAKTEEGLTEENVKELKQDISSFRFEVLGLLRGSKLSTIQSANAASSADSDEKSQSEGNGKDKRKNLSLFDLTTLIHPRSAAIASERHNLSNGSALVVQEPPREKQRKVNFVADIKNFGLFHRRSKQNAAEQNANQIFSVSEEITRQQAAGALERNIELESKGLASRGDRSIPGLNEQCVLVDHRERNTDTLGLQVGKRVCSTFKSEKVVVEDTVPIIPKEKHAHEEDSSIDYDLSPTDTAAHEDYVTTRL
Put plainly: mouse TRPC4 channel inhibitors, dose response, cell-based, HEK293 TRPC4/mu-opioid, Fluo-4 calcium (AID 434942).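 Further: potency of inhibitors blocking the TRPC4 calcium response.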 The format is functional.

The target in assay [6] is T2, DNA repair and recombination protein RAD54-like (Homo sapiens, UniProt Q92698).
T2 sequence (Q92698 whole entry): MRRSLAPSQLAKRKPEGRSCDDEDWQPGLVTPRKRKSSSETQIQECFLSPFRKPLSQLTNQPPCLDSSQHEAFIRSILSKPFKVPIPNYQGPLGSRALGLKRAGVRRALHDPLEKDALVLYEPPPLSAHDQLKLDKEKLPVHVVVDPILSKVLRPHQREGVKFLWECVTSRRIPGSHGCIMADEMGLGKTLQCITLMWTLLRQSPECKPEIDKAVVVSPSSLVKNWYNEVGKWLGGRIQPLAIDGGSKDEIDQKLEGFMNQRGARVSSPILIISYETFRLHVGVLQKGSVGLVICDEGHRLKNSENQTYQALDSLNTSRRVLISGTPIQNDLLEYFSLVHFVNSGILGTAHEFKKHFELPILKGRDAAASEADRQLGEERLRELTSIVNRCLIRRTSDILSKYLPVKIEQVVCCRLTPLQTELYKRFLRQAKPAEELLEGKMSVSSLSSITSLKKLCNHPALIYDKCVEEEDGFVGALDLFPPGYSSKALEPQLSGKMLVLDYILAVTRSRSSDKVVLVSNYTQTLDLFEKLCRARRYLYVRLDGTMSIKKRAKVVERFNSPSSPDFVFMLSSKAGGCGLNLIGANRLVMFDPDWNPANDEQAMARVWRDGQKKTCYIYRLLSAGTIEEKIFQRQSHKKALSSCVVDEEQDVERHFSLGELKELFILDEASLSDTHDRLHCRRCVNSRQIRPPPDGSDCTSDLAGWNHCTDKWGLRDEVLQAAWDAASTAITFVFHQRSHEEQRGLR
Put plainly: inhibitors of human RAD54 branch migration, confirmation, biochemical, fluorescence, cherry-picked samples, dose series (AID 651657). Type of assay: functional.

Another assay deals with SUMO-activating enzyme (Homo sapiens, UniProt Q9UBT2). Put plainly: SUMOylation inhibitor hit validation, confirmation, SUMOylation inhibitor project, biochemical, AlphaScreen (AID 2018). The format is functional. Background: Alpha assays give light when donor and acceptor beads are brought close together.
Assay [7] deals with T3, Rac GTPase-activating protein 1 (Homo sapiens, UniProt Q9H0H5).
T3 sequence (Q9H0H5 whole entry): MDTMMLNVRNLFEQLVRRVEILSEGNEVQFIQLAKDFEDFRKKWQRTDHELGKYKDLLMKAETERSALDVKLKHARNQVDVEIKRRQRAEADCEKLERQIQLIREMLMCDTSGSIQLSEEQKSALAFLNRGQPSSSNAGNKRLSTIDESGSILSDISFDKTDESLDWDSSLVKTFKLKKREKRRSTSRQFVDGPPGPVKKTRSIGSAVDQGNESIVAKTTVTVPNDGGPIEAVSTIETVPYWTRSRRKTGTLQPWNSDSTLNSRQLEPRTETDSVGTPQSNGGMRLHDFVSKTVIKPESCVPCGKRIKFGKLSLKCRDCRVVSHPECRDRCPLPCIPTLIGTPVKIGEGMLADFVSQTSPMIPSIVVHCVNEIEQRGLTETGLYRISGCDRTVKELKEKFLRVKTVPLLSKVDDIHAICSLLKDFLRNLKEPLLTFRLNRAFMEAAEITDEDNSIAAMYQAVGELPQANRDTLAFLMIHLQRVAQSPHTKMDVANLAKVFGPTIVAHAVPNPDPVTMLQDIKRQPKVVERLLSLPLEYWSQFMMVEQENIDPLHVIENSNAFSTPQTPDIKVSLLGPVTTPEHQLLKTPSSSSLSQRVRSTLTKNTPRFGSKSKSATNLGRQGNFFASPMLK
Put plainly: MgcRacGAP GTPase-activating activity inhibitors, confirmation, biochemical, ADP Hunter fluorescence, primary and confirmatory (AID 624330). The format is functional.

Assay [8] concerns the target Heat shock protein HSP 90-alpha (Homo sapiens, UniProt P07900). The format is functional, organism-based.
The nature of assay [9]: intracellular Trypanosoma cruzi inhibitors in host cells – cell-based, plate reader, cherry-pick samples, set 3, dose response (AID 651818).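 Further: compounds incubated with infected cells for about four days.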 Type of assay: functional.
In assay [10] the target is T4, Long-chain-fatty-acid--AMP ligase FadD28 (Mycobacterium tuberculosis, UniProt P9WQ59).
T4 sequence (P9WQ59 whole entry): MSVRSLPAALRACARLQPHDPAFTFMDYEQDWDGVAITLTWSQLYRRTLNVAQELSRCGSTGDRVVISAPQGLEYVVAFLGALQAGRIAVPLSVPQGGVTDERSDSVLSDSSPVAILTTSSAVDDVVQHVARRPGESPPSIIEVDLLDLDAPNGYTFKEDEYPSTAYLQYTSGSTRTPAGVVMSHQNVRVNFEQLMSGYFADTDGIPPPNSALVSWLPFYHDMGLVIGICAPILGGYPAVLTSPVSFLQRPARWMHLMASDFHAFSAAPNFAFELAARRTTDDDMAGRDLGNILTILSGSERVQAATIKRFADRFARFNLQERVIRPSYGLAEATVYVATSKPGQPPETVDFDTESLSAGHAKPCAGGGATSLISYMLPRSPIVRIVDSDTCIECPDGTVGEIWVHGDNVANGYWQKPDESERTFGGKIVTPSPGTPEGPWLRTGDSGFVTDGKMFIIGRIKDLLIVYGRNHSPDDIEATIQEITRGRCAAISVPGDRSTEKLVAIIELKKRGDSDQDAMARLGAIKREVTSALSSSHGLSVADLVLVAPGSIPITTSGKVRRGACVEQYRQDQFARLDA
Put plainly: Fluorescence polarization aasay to screen for inhibitors that compete for the binding of FadD28 to a bisubstrate Measured in Biochemical System Using Plate Reader - 2147-01_Inhibitor_Dose_CherryPick_Activity. The format is functional, Mycobacterium tuberculosis H37Rv. (In general: Fluorescence polarisation rises when a labelled molecule tumbles more slowly, as on binding a larger partner.)

Sequence of Genome polyprotein (P29990 2492-3391 limits assumed): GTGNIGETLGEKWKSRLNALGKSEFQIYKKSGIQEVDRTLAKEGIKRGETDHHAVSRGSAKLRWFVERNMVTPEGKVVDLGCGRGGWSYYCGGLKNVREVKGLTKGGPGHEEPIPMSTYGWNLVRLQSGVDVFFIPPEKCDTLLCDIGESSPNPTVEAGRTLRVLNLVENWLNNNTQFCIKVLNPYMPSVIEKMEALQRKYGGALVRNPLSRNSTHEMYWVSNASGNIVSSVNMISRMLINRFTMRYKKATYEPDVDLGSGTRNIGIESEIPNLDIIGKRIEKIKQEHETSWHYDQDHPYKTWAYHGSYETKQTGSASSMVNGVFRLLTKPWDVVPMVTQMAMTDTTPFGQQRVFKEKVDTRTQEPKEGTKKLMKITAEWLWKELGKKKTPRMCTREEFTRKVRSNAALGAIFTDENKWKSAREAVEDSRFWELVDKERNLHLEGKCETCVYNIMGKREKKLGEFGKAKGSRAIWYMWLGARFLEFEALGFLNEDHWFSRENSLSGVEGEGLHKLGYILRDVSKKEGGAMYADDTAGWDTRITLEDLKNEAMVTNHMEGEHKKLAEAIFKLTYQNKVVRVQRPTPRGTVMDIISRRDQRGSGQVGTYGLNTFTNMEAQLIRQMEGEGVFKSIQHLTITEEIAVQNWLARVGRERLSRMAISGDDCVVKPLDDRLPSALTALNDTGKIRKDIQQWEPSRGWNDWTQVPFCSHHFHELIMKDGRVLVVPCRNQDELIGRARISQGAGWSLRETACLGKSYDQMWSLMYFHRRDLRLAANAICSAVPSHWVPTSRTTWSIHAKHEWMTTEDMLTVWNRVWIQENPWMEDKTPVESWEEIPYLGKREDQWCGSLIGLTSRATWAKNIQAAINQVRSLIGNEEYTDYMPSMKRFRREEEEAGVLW
Sequence of DNA dC->dU-editing enzyme APOBEC-3G (Q9HC16 whole entry): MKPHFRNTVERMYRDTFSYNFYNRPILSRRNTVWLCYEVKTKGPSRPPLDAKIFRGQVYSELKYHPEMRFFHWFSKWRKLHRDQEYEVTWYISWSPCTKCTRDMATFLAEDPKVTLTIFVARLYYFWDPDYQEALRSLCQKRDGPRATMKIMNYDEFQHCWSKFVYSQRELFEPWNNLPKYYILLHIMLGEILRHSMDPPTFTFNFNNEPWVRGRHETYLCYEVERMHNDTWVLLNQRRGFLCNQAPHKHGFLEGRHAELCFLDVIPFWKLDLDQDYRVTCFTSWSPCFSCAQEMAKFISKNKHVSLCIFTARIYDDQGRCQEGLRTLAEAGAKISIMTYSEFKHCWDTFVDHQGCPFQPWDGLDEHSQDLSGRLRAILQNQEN
Sequence of DNA dC->dU-editing enzyme APOBEC-3A (P31941 whole entry): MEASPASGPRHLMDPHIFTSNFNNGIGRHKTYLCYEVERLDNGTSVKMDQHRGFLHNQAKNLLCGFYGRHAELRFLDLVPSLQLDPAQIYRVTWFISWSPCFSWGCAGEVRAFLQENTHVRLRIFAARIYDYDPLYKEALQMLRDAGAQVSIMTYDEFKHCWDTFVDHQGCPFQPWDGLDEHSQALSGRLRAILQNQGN
Sequence of Luciferin 4-monooxygenase (P08659 whole entry): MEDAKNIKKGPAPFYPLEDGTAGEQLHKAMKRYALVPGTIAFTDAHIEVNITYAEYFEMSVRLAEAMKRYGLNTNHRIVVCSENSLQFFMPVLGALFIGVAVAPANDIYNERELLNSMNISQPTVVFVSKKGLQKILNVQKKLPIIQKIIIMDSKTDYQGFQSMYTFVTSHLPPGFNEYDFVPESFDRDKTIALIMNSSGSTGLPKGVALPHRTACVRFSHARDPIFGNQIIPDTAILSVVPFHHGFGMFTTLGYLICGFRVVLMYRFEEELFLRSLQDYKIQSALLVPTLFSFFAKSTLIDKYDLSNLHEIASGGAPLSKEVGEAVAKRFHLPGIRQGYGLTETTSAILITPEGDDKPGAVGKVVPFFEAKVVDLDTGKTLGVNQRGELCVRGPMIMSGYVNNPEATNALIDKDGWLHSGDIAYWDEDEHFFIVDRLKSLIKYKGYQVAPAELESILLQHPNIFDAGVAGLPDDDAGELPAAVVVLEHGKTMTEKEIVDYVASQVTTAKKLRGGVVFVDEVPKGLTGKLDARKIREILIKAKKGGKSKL
Sequence of SUMO-activating enzyme (Q9UBE0 whole entry): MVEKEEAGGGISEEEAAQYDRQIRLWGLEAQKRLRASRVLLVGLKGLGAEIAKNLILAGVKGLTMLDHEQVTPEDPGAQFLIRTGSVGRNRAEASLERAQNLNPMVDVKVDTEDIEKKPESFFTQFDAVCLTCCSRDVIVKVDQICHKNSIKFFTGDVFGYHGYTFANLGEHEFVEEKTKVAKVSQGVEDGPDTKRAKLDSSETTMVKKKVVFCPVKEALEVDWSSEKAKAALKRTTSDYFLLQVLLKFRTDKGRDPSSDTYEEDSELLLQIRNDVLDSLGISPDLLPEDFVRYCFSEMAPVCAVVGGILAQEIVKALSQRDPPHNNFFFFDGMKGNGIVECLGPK
Sequence of SUMO-activating enzyme (Q9UBT2 whole entry): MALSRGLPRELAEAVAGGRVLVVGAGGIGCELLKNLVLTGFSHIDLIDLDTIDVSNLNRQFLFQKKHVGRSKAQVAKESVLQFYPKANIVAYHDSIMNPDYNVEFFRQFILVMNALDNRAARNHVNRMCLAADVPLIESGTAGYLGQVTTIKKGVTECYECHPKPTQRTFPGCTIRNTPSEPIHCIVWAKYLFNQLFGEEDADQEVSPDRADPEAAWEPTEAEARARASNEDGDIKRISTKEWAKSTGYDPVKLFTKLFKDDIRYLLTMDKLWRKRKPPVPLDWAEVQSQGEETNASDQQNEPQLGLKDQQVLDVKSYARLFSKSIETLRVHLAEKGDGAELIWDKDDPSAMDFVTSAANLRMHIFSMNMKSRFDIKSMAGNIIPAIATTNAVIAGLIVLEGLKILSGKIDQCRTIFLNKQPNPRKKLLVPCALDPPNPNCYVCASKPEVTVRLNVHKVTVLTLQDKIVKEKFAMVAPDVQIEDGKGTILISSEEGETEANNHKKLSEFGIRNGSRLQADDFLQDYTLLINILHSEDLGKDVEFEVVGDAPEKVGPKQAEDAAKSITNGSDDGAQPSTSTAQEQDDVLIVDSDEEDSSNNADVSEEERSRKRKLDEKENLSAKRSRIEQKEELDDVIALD

Usually IC50 stands for the concentration that inhibits the measured activity by half. As for `CCn1c2ccccc2c2cc(NC(=O)c3ccccc3-c3ccccc3C(=O)O)ccc21`, the IC50 at Genome polyprotein was 42.9 µM (active). In the case of `NC(=O)C[N+]1(CC#CC(O)(c2ccccc2)c2ccccc2)CCCC1`, the figures for the IC50 in assay [1] and in [2] were 2.59 µM (active) and 2.74 µM (active), respectively. On to `COCc1cc(C)nc(Sc2nc3c(c(=O)n(C)c(=O)n3C)n2C)c1C#N`, for which the IC50 in assay [1] is 8.47 µM (active); in [2], 7.99 µM (active).

The EC50 is the concentration needed to bring the measured effect to its halfway point. One may read the AC50 as the midpoint of the concentration-response curve, whichever way the signal moves. In the case of `COc1ccc(NC(=O)c2ccccn2)cc1`, the EC50 in assay [3] was 9.53 µM (active); in assay [4], 10.5 µM (active). For the same compound, the AC50 in the assay with HEK293 was 3.65 µM (active).

For `O=C(O)C1=CC[C@@H](c2ccc(Cl)cc2)N(S(=O)(=O)c2ccc(Cl)cc2)[C@H]1c1cccc(Cl)c1`, the IC50 at Genome polyprotein is 37.4 µM (active).

For `CSc1nsc(NC(=O)Cc2ccccc2)n1`, in assay [5], the EC50 is 5.31 µM (active). Take `COC(=O)C1=C(C)N(CC2CC2)C(NCc2cc(OC)c(OC)c(OC)c2)=N[C@H]1c1ccccc1`: the IC50 in assay [1] is 14 µM (active); in assay [2], 8.83 µM (active). Take `COC(=O)c1c(NC(=O)CSc2nc[nH]n2)sc(C)c1C`: the concentration giving a half-maximal response (EC50) in assay [5] was 4.73 µM (active). Take `Cc1ccc2oc(=O)c3cc(C(=O)NCCCN4CCN(C)CC4)sc3c2c1`: the half-maximal activity concentration (AC50) in assay [6] is 34 µM (active). `COC(=O)c1ccc2ccn(CC(=O)NC(C)C)c2c1`: the IC50 is 4.95 µM (active) in [1] and 3.92 µM (active) in assay [2]. Consider `Cc1ccc(C2CN(C)CC2C(=O)c2ccc(F)cc2)cc1` (configuration not stated), for which the EC50 in assay [5] is 13.3 µM (active). In the case of `CSc1ccc(C(c2c(C(=O)O)[nH]c3ccccc23)c2c(C(=O)O)[nH]c3ccccc23)cc1`, the IC50 at Genome polyprotein was 48.8 µM (active). For the compound `O=C(COC(=O)c1cc(NS(=O)(=O)c2cccs2)ccc1O)Nc1cc(Cl)ccc1Cl`, at SUMO-activating enzyme, the IC50 is 28.8 µM (active).

In the case of `O=C(O)CCn1cc(C=C2C(=O)NC(=O)NC2=O)c(-c2ccc(Br)cc2)n1`, the IC50 at Genome polyprotein is 7.97 µM (active); in assay [7], 95.3 µM (active). For the compound `CCCCCCC(=O)N(O)C1CC(=O)N(c2ccc(F)cc2)C1=O` (configuration not stated), the AC50 in assay [8] is 2.58 µM (active). Regarding `Cc1ccc([C@H]2C(C(=O)O)=CC[C@@H](c3ccc(Cl)c(Cl)c3)N2S(=O)(=O)c2ccc(C)cc2)cc1`, the IC50 on Genome polyprotein was 38.8 µM (active).

In the case of `CCN1C(=NCC2CC2)N[C@@H](c2ccccc2)C(C(=O)OC)=C1C`, the figures for the IC50 in assay [1] and in [2] were 8.56 µM (active) and 3.37 µM (active), respectively. As to `C[C@@H]1CN([C@H](C)CO)C(=O)Cc2cc(NC(=O)Nc3ccc(F)cc3)ccc2O[C@H]1CN(C)Cc1ccc(-c2ccccc2)cc1`, the AC50 in assay [9] is 3.36 µM (active). `C[C@H]1CN([C@@H](C)CO)C(=O)Cc2cc(NC(=O)Cc3ccccc3)ccc2O[C@H]1CN(C)Cc1ccc(C(F)(F)F)cc1`: the AC50 in assay [9] is 2.61 µM (active).

Take `C[C@@H]1CN([C@H](C)CO)C(=O)Cc2cc(NC(=O)Nc3ccc4c(c3)OCO4)ccc2O[C@@H]1CN(C)Cc1ccc(C(F)(F)F)cc1`: the AC50 in [9] was 3.86 µM (active). `Cc1ccc(S(=O)(=O)N(C)C[C@H]2Oc3ccc(NS(=O)(=O)c4ccccc4)cc3CC(=O)N([C@H](C)CO)C[C@H]2C)cc1`: the AC50 in assay [9] is 2.56 µM (active). Take `C[C@H]1CN([C@@H](C)CO)C(=O)Cc2cc(NC(=O)Nc3ccc(C(F)(F)F)cc3)ccc2O[C@H]1CN(C)Cc1ccncc1`: the concentration at half-maximal activity (AC50) in [9] was 5.53 µM (active).

For the compound `O=C(O)c1ccc(N/N=C/c2ccc(-c3ccccc3)cc2)cc1`, the AC50 in assay [10] was 10.9 µM (active); in assay [8] it was 3.09 µM (active).
